Common to all, as to assay: relative viability (nuclei count vs DMSO), 5 days (fraction); higher = more cells survive
Compound in the assay “TGX 221 + Navitoclax”: CC1=CN2C(=O)C=C(N=C2C(=C1)C(C)NC3=CC=CC=C3)N4CCOCC4 [TGX 221] + CC1(C)CCC(c2ccc(Cl)cc2)=C(CN2CCN(c3ccc(C(=O)NS(=O)(=O)c4ccc(N[C@H](CCN5CCOCC5)CSc5ccccc5)c(S(=O)(=O)C(F)(F)F)c4)cc3)CC2)C1 [Navitoclax] (partner 0.5 µM)
The procedure, abridged:
(§1)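 Each reported value is a median over duplicate plates. It expresses relative viability: treated-well nuclei count divided by vehicle-well nuclei count. Lung cancer cell lines in 1536-well plates were dosed by pin tool a day after seeding, alone with one drug or with a fixed anchor-drug dose plus five library-drug doses (not always all listed) in √10 steps, and nuclei were counted after 5 days.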

Compound in the assay “TGX 221 + Pemetrexed”: CC1=CN2C(=O)C=C(N=C2C(=C1)C(C)NC3=CC=CC=C3)N4CCOCC4 [TGX 221] + Nc1nc2[nH]cc(CCc3ccc(C(=O)N[C@@H](CCC(=O)O)C(=O)O)cc3)c2c(=O)[nH]1 [Pemetrexed] (partner 0.2 µM)
The procedure, abridged: as §1

Compound in assay [1]: C1=CC=C(C(=C1)C2=CC=C(C=C2)C3=CSC4=C3C(=C(C(=O)N4)C#N)O)O + Cc1nc(Nc2ncc(C(=O)Nc3c(C)cccc3Cl)s2)cc(N2CCN(CCO)CC2)n1 [Dasatinib] (partner 0.075 µM)
The procedure, abridged: as §1

Compound in the assay “TGX 221 + Palbociclib”: CC1=CN2C(=O)C=C(N=C2C(=C1)C(C)NC3=CC=CC=C3)N4CCOCC4 [TGX 221] + CC(=O)c1c(C)c2cnc(Nc3ccc(N4CCNCC4)cn3)nc2n(C2CCCC2)c1=O [Palbociclib] (partner 0.5 µM)
The procedure, abridged: as §1

On to HOP-62, for which the relative viability in the assay with TGX 221 + Navitoclax (first compound 0.08 µM) is 1.04; with TGX 221 + Navitoclax (first compound 0.253 µM) it was 1.06; with TGX 221 + Navitoclax (first compound 0.8 µM) it was 1.09; with TGX 221 + Navitoclax (first compound 2.53 µM) it was 1.12; with TGX 221 + Navitoclax (first compound 8 µM), 1.06; with TGX 221 + Pemetrexed (first compound 0.08 µM), 0.315. For the same cell line, the relative viability with TGX 221 + Pemetrexed (first compound 0.253 µM) was 0.279; in the assay with TGX 221 + Pemetrexed (first compound 0.8 µM), 0.289; with TGX 221 + Pemetrexed (first compound 2.53 µM), 0.438; with TGX 221 + Pemetrexed (first compound 8 µM) it was 0.376; in assay [1] (first compound 0.08 µM), 0.528; in assay [1] (first compound 0.253 µM), 0.573. For the same cell line, the relative viability in assay [1] (first compound 0.8 µM) worked out at 0.685; in assay [1] (first compound 2.53 µM), 0.67; in assay [1] (first compound 8 µM) it was 0.501; with TGX 221 + Palbociclib (first compound 0.08 µM), 0.429; in the assay with TGX 221 + Palbociclib (first compound 0.253 µM), 0.449; with TGX 221 + Palbociclib (first compound 0.8 µM) it was 0.484. Also, the relative viability with TGX 221 + Palbociclib (first compound 2.53 µM) was determined as 0.509; in the assay with TGX 221 + Palbociclib (first compound 8 µM), 0.43.

On to NCI-H2023, for which the relative viability came to 0.987 in the assay with TGX 221 + Navitoclax (first compound 0.08 µM); 0.965 with TGX 221 + Navitoclax (first compound 0.253 µM); 0.988 with TGX 221 + Navitoclax (first compound 0.8 µM); 0.925 in the assay with TGX 221 + Navitoclax (first compound 2.53 µM); 0.758 with TGX 221 + Navitoclax (first compound 8 µM); 0.263 with TGX 221 + Pemetrexed (first compound 0.08 µM). Further, the relative viability in the assay with TGX 221 + Pemetrexed (first compound 0.253 µM) is 0.205; in the assay with TGX 221 + Pemetrexed (first compound 0.8 µM), 0.223; with TGX 221 + Pemetrexed (first compound 2.53 µM), 0.214; in the assay with TGX 221 + Pemetrexed (first compound 8 µM) it was 0.189; in assay [1] (first compound 0.08 µM), 0.444; in assay [1] (first compound 0.253 µM), 0.521. The relative viability in assay [1] (first compound 0.8 µM) turned out to be 0.648; in assay [1] (first compound 2.53 µM), 0.55; in assay [1] (first compound 8 µM), 0.433; in the assay with TGX 221 + Palbociclib (first compound 0.08 µM), 0.328; with TGX 221 + Palbociclib (first compound 0.253 µM), 0.337; with TGX 221 + Palbociclib (first compound 0.8 µM), 0.269. Moreover, the relative viability with TGX 221 + Palbociclib (first compound 2.53 µM) amounted to 0.342; in the assay with TGX 221 + Palbociclib (first compound 8 µM), 0.212.

As for LOU-NH91, the relative viability with TGX 221 + Navitoclax (first compound 0.08 µM) was 0.705; with TGX 221 + Navitoclax (first compound 0.253 µM) it was 0.647; in the assay with TGX 221 + Navitoclax (first compound 0.8 µM), 0.707; with TGX 221 + Navitoclax (first compound 2.53 µM), 0.681; with TGX 221 + Navitoclax (first compound 8 µM) it was 0.544; in the assay with TGX 221 + Pemetrexed (first compound 0.08 µM), 0.446. Besides, the relative viability with TGX 221 + Pemetrexed (first compound 0.253 µM) was found to be 0.409; in the assay with TGX 221 + Pemetrexed (first compound 0.8 µM) it was 0.341; in the assay with TGX 221 + Pemetrexed (first compound 2.53 µM), 0.446; with TGX 221 + Pemetrexed (first compound 8 µM), 0.367; in assay [1] (first compound 0.08 µM) it was 0.493; in assay [1] (first compound 0.253 µM), 0.589. Besides, the relative viability was found to be 0.506 in assay [1] (first compound 0.8 µM); 0.542 in assay [1] (first compound 2.53 µM); 0.489 in assay [1] (first compound 8 µM); 0.612 in the assay with TGX 221 + Palbociclib (first compound 0.08 µM); 0.511 with TGX 221 + Palbociclib (first compound 0.253 µM); 0.448 with TGX 221 + Palbociclib (first compound 0.8 µM). Moreover, the relative viability was 0.492 with TGX 221 + Palbociclib (first compound 2.53 µM) and 0.517 in the assay with TGX 221 + Palbociclib (first compound 8 µM).

With COR-L23, the relative viability in the assay with TGX 221 + Navitoclax (first compound 0.08 µM) stood at 1.01; with TGX 221 + Navitoclax (first compound 0.253 µM), 1.02; with TGX 221 + Navitoclax (first compound 0.8 µM), 0.963; with TGX 221 + Navitoclax (first compound 2.53 µM) it was 0.954; with TGX 221 + Navitoclax (first compound 8 µM), 0.997; in the assay with TGX 221 + Pemetrexed (first compound 0.08 µM), 0.22. Further, the relative viability with TGX 221 + Pemetrexed (first compound 0.253 µM) was 0.198; in the assay with TGX 221 + Pemetrexed (first compound 0.8 µM), 0.186; in the assay with TGX 221 + Pemetrexed (first compound 2.53 µM), 0.218; in the assay with TGX 221 + Pemetrexed (first compound 8 µM), 0.189; in assay [1] (first compound 0.08 µM) it was 0.492; in assay [1] (first compound 0.253 µM), 0.48. Moreover, the relative viability is 0.61 in assay [1] (first compound 0.8 µM); 0.548 in assay [1] (first compound 2.53 µM); 0.272 in assay [1] (first compound 8 µM); 0.247 in the assay with TGX 221 + Palbociclib (first compound 0.08 µM); 0.278 in the assay with TGX 221 + Palbociclib (first compound 0.253 µM); 0.305 with TGX 221 + Palbociclib (first compound 0.8 µM). The relative viability is 0.3 with TGX 221 + Palbociclib (first compound 2.53 µM) and 0.284 with TGX 221 + Palbociclib (first compound 8 µM).

Regarding EPLC-272H, the relative viability with TGX 221 + Navitoclax (first compound 0.08 µM) was found to be 1.1; with TGX 221 + Navitoclax (first compound 0.253 µM), 1.17; in the assay with TGX 221 + Navitoclax (first compound 0.8 µM) it was 1.19; in the assay with TGX 221 + Navitoclax (first compound 8 µM), 1.29; with TGX 221 + Pemetrexed (first compound 0.08 µM), 0.392; in the assay with TGX 221 + Pemetrexed (first compound 0.253 µM), 0.279. Also, the relative viability in the assay with TGX 221 + Pemetrexed (first compound 0.8 µM) was 0.353; with TGX 221 + Pemetrexed (first compound 2.53 µM), 0.295; with TGX 221 + Pemetrexed (first compound 8 µM), 0.303; in assay [1] (first compound 0.08 µM) it was 0.311; in assay [1] (first compound 0.253 µM) it was 0.306; in assay [1] (first compound 0.8 µM), 0.339. Besides, the relative viability in assay [1] (first compound 2.53 µM) was found to be 0.407; in assay [1] (first compound 8 µM), 0.303; with TGX 221 + Palbociclib (first compound 0.08 µM) it was 0.324; in the assay with TGX 221 + Palbociclib (first compound 0.253 µM) it was 0.35; with TGX 221 + Palbociclib (first compound 0.8 µM), 0.32; with TGX 221 + Palbociclib (first compound 2.53 µM), 0.328. In addition, the relative viability with TGX 221 + Palbociclib (first compound 8 µM) was 0.289.

As to H3255, the relative viability was 0.486 with TGX 221 + Navitoclax (first compound 0.08 µM); 0.49 with TGX 221 + Navitoclax (first compound 0.253 µM); 0.515 with TGX 221 + Navitoclax (first compound 0.8 µM); 0.553 in the assay with TGX 221 + Navitoclax (first compound 2.53 µM); 0.601 in the assay with TGX 221 + Navitoclax (first compound 8 µM); 0.54 in the assay with TGX 221 + Pemetrexed (first compound 0.08 µM). Moreover, the relative viability in the assay with TGX 221 + Pemetrexed (first compound 0.253 µM) worked out at 0.71; with TGX 221 + Pemetrexed (first compound 0.8 µM) it was 0.487; with TGX 221 + Pemetrexed (first compound 2.53 µM), 0.562; in the assay with TGX 221 + Pemetrexed (first compound 8 µM) it was 0.539; in assay [1] (first compound 0.08 µM), 0.369; in assay [1] (first compound 0.253 µM), 0.352. Besides, the relative viability in assay [1] (first compound 0.8 µM) came out at 0.255; in assay [1] (first compound 2.53 µM), 0.39; in assay [1] (first compound 8 µM) it was 0.35; with TGX 221 + Palbociclib (first compound 0.08 µM) it was 0.312; in the assay with TGX 221 + Palbociclib (first compound 0.253 µM), 0.342; with TGX 221 + Palbociclib (first compound 0.8 µM) it was 0.331. The relative viability in the assay with TGX 221 + Palbociclib (first compound 2.53 µM) is 0.29; with TGX 221 + Palbociclib (first compound 8 µM), 0.321.

For the origin of these results see the supplement of paper PMC10307832.
